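Test compounds were applied to cells in 96-well plates for 48 hours at 5 doses. GI50 is the concentration that inhibits growth by half.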 Active and inactive are the calls of the source. No stated cut-off is given here; in the data, active = GI50 up to about 1.1 µM and inactive = higher.
Legend:
Test in all cases: DTP human tumour cell line panel, 48 h
[1] = tested on: TK-10
[2] = tested on: OVCAR-3
[3] = tested on: CAKI-1
[4] = tested on: SNB-75
[5] = tested on: CCRF-CEM
[6] = tested on: UO-31
[7] = tested on: MCF7
[8] = tested on: K562
[9] = tested on: HCT-116
[10] = tested on: NCI-H23
[11] = tested on: T47D
[12] = tested on: M14
[13] = tested on: SF-295
[14] = tested on: HL-60
[15] = tested on: DU-145
[16] = tested on: HCC 2998
[17] = tested on: SR

SMILES | GI50 [1] | GI50 [2] | GI50 [3] | GI50 [4] | GI50 [5] | GI50 [6] | GI50 [7] | GI50 [8] | GI50 [9] | GI50 [10] | GI50 [11] | GI50 [12] | GI50 [13] | GI50 [14] | GI50 [15] | GI50 [16] | GI50 [17]
Cc1cc(C)c(S(=O)(=O)N2CCCN(S(=O)(=O)c3c(C)cc(C)cc3C)OCCCO2)c(C)c1 | > 100 µM (inactive) | > 100 µM (inactive) | > 100 µM (inactive) | 57.1 µM (inactive) | > 100 µM (inactive) | > 100 µM (inactive) | > 100 µM (inactive) | > 100 µM (inactive) | > 100 µM (inactive) | 75.5 µM (inactive) | 63.5 µM (inactive) | > 100 µM (inactive) | > 100 µM (inactive) | > 100 µM (inactive) | > 100 µM (inactive) |  | 
OC1(C(Sc2cc(C(F)(F)F)cc(C(F)(F)F)c2)Sc2cc(C(F)(F)F)cc(C(F)(F)F)c2)C=CCCC1 (stereo not drawn) | 1.51 µM (inactive) | 2.04 µM (inactive) | 1.79 µM (inactive) | 2.15 µM (inactive) | 1.61 µM (inactive) | 1.38 µM (inactive) | 1.49 µM (inactive) | 1.53 µM (inactive) | 2.12 µM (inactive) | 2.58 µM (inactive) | 1.25 µM (inactive) | 1.81 µM (inactive) | 1.86 µM (inactive) | 1.38 µM (inactive) | 2.53 µM (inactive) | 1.4 µM (inactive) | 
O=C(NC(CS)C(=O)O)c1c2ccccc2nc2ccccc12 (stereo not drawn) | > 100 µM (inactive) | > 100 µM (inactive) | > 100 µM (inactive) | 83.8 µM (inactive) | 61.7 µM (inactive) | 3.87 µM (inactive) | 49.3 µM (inactive) | 40.2 µM (inactive) | 13.6 µM (inactive) | 11.2 µM (inactive) |  | > 100 µM (inactive) | 21.5 µM (inactive) | 0.16 µM (active) | 30.7 µM (inactive) | 83.9 µM (inactive) | > 100 µM (inactive)
Cn1cnc([N+](=O)[O-])c1Sc1nncc2[nH]cnc12 | > 100 µM (inactive) | > 100 µM (inactive) | > 100 µM (inactive) | > 100 µM (inactive) | > 100 µM (inactive) | > 100 µM (inactive) | > 100 µM (inactive) | > 100 µM (inactive) | > 100 µM (inactive) | > 100 µM (inactive) | > 100 µM (inactive) | > 100 µM (inactive) | > 100 µM (inactive) | > 100 µM (inactive) |  | > 100 µM (inactive) | > 100 µM (inactive)
OCC(O)CNc1ncnc2ccccc12 (stereo not drawn) | > 100 µM (inactive) | > 100 µM (inactive) | > 100 µM (inactive) | > 100 µM (inactive) | > 100 µM (inactive) | > 100 µM (inactive) | > 100 µM (inactive) | > 100 µM (inactive) | > 100 µM (inactive) | > 100 µM (inactive) | > 100 µM (inactive) | > 100 µM (inactive) | > 100 µM (inactive) | > 100 µM (inactive) | > 100 µM (inactive) | > 100 µM (inactive) | 
COc1c(C)c(C/C=C(\C)CCCCO[Si](C(C)C)(C(C)C)C(C)C)c(OC)c2ccccc12 | > 100 µM (inactive) | > 100 µM (inactive) | > 100 µM (inactive) | > 100 µM (inactive) | 49 µM (inactive) | > 100 µM (inactive) | > 100 µM (inactive) | > 100 µM (inactive) | > 100 µM (inactive) | > 100 µM (inactive) |  | > 100 µM (inactive) | > 100 µM (inactive) |  | > 100 µM (inactive) | > 10 µM (inactive) | 70.1 µM (inactive)
N#Cc1c(-c2ccc(Cl)cc2)c(C#N)c(=O)n(NS(=O)(=O)c2ccccc2)c1-c1ccccc1 | > 25 µM (inactive) |  | > 25 µM (inactive) |  | > 25 µM (inactive) |  | 19.8 µM (inactive) | > 25 µM (inactive) | > 25 µM (inactive) |  |  | > 25 µM (inactive) | > 25 µM (inactive) | > 25 µM (inactive) |  | > 25 µM (inactive) | 
N#C[C@](CO)(NC(=O)OCc1ccccc1)C(F)F | > 100 µM (inactive) | > 100 µM (inactive) | > 100 µM (inactive) | > 100 µM (inactive) | > 100 µM (inactive) | > 100 µM (inactive) |  | > 100 µM (inactive) | > 100 µM (inactive) | > 100 µM (inactive) | > 100 µM (inactive) | > 100 µM (inactive) | > 100 µM (inactive) | > 100 µM (inactive) | > 100 µM (inactive) | > 100 µM (inactive) | > 100 µM (inactive)
O=S(=O)(Cc1ccccc1)c1nnc(S(=O)(=O)c2ccc(Cl)cc2)s1 | 12.2 µM (inactive) | 20.5 µM (inactive) | 24.3 µM (inactive) | 16.6 µM (inactive) |  | 21.3 µM (inactive) | 48 µM (inactive) | 32.2 µM (inactive) | 19.5 µM (inactive) | 23.3 µM (inactive) | 31.6 µM (inactive) | 17.7 µM (inactive) | 24.1 µM (inactive) |  | 17 µM (inactive) |  | 
Cc1cccc(Cl)c1NCC(O)CN1CCN(C)CC1 (stereo not drawn) | > 100 µM (inactive) | > 100 µM (inactive) | > 100 µM (inactive) | > 100 µM (inactive) | > 100 µM (inactive) | > 100 µM (inactive) |  | > 100 µM (inactive) | > 100 µM (inactive) | > 100 µM (inactive) | > 100 µM (inactive) | > 100 µM (inactive) | > 100 µM (inactive) |  | > 100 µM (inactive) | > 100 µM (inactive) | > 100 µM (inactive)
Cc1cn(Cc2ccccc2CCl)c(=O)[nH]c1=O | 15.3 µM (inactive) | 4.24 µM (inactive) | 10.4 µM (inactive) | 14.6 µM (inactive) | 4.58 µM (inactive) | 11.6 µM (inactive) | 4.84 µM (inactive) | 4.72 µM (inactive) | 4.53 µM (inactive) | 10.2 µM (inactive) | 11.5 µM (inactive) | 12.9 µM (inactive) | 13.8 µM (inactive) | 3.08 µM (inactive) | 13.1 µM (inactive) | 15.3 µM (inactive) | 
CC(C)CCC[C@@H](C)C1CCC2[C@@H]3CCC4CC(CCC=C(c5cc(Cl)c(OC(=O)c6ccccc6)c(C(=O)O)c5)c5cc(Cl)c(OC(=O)c6ccccc6)c(C(=O)O)c5)CC[C@]4(C)C3CC[C@@]21C (stereo partly drawn) | 52.2 µM (inactive) | 74.8 µM (inactive) | > 100 µM (inactive) | > 100 µM (inactive) | > 100 µM (inactive) | > 100 µM (inactive) | > 100 µM (inactive) | > 100 µM (inactive) | > 100 µM (inactive) | > 100 µM (inactive) |  | 15.8 µM (inactive) |  | > 100 µM (inactive) | > 100 µM (inactive) | > 100 µM (inactive) | 
COc1cccc2c1[C@H](OC)[C@]13O[C@@]1(C2=O)[C@H](O)[C@H](C)[C@@](O)(C(=O)[C@@H]1O[C@H]1C)[C@@H]3O | 0.318 µM (active) | 0.276 µM (active) |  |  | 0.155 µM (active) |  | 0.294 µM (active) | 0.259 µM (active) |  | 0.196 µM (active) | 0.313 µM (active) |  | 0.218 µM (active) | 0.31 µM (active) | 0.282 µM (active) |  | 

From ChEMBL document CHEMBL1201862, “PubChem BioAssay data set” (2004)
